Measurements reported in patent US20240425456A1, “DEGRADER” (ASKA PHARMACEUTICAL CO., LTD., priority 2021, published 2024).

Key:
Type in all cases: cell-based
JAK3 = biological target: T1, JAK3 (Homo sapiens, UniProt P52333); test: Degradation-inducing effect on JAK in Jurkat cells (chemiluminescent Western blotting), JAK3; details: 1 μmol/L, 6 hours, corrected by GAPDH, DMSO as 100%, read-out: JAK protein ratio of Jurkat cells after treatment of each test compound: JAK3
T1 construct: endogenous in cells; host or cells: Jurkat cells
T1 sequence (P52333 1-1124): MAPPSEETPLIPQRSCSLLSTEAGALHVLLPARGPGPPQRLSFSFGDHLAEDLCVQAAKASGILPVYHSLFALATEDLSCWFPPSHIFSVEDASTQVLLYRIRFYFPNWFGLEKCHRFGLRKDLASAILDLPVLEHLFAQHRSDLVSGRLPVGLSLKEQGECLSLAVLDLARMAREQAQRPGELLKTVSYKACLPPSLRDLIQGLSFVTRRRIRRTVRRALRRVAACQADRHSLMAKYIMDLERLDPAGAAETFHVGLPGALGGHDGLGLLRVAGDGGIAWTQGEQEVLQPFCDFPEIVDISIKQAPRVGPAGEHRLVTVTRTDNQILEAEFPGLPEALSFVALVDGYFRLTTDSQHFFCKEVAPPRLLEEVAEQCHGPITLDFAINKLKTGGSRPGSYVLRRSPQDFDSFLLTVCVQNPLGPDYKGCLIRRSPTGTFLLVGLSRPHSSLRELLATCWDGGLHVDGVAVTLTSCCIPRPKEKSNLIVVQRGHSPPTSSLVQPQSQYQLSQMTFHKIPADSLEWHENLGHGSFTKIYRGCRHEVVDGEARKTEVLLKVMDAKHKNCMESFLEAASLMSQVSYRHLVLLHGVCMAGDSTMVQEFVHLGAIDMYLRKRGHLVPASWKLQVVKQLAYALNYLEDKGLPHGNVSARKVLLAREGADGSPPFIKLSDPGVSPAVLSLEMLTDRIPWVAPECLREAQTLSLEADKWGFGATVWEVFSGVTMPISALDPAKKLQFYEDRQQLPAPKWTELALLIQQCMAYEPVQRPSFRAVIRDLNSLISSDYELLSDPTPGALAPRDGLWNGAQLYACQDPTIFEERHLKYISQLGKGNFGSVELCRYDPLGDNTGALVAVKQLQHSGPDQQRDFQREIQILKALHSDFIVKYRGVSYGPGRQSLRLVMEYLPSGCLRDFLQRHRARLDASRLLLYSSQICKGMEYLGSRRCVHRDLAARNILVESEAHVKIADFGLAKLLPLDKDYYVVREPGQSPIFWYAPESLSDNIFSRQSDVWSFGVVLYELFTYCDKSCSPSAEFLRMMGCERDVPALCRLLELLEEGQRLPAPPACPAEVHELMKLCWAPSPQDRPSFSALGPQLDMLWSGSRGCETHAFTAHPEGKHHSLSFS
Method: (§1) The degradation-inducing effect of the compound of the present invention on JAK family proteins was evaluated in vitro using Jurkat cells, of which cell line was derived from human leukemic T cells.
(§2) JAK1, JAK2, JAK3, and Tyk2-positive Jurkat cells were seeded at a density of 1×10^5 cells/mL on 10 cm diameter dishes and then cultured in RPMI 1640 medium (FUJIFILM Wako Pure Chemical: catalog number: 189-02025) containing 10% FBS (Thermo Fisher Scientific: catalog number: 10437-028) at 5% CO2 and 37° C. for 3 days. Then, each of the test compounds (compounds of Examples 1 to 11 and Comparative Examples 1 and 2) was added to the dish at a final concentration of 1 μmol/L, and the cells were cultured in the presence of the test compound for 6 hours. After that, the cell culture medium was collected in a 15 mL centrifuge tube (1000 rpm (240× g), room temperature, 5 min), followed by washing with PBS (1000 rpm (240× g), room temperature, 5 min). Then, the cells in the centrifuge tube were collected in a 1.5 mL tube (3000 rpm (860× g), 4° C., 5 min), lysed using RIPA buffer (25 mmol/L Tris-HCl (pH 7.4), 25 mmol/L NaCl, 0.5 mmol/L EGTA (pH 8.0), 0.1% SDS, 1% protease inhibitor), sonicated at ice temperature (cycles of [7.5 sec sonication, 5 sec off] for 5 min) and subjected to centrifugation (15000 rpm (21600× g), 4° C., 30 min). The thus-obtained supernatant was used as the protein solution. Using the BCA protein assay kit (Thermo Fisher Scientific: catalog number: 23225), the protein concentration of the protein solution of each test compound was measured according to the kit instructions, and then adjusted to 1.4 mg/mL with RIPA buffer. The thus-adjusted protein solutions were subjected to a fully automated Western blotting device (Simple Westerns Wes: proteinSimple) to detect the protein levels (JAK1, JAK2, JAK3, and Tyk2 as the target proteins, and GAPDH (Glyceraldehyde 3-phosphate dehydrogenase) as the internal standard protein) in the protein solutions by chemiluminescent Western blotting.
(§3) Furthermore, the luminescence levels of JAK1, JAK2, JAK3, and Tyk2 detected by chemiluminescent Western blotting were quantified numerically by using an analysis software (Compass software for Simple Western (version 4.0.0)) attached to the fully automated Western blotting device. The numerical values of the quantified luminescence levels were corrected by the protein levels of the internal standard protein, i.e., GAPDH, (target protein levels/GAPDH protein levels), and compared among the test compounds with dimethyl sulfoxide (DMSO) as 100%.

JAK1 = biological target: T2, JAK1 (Homo sapiens, UniProt P23458); test: Degradation-inducing effect on JAK in Jurkat cells (chemiluminescent Western blotting), JAK1; details: 1 μmol/L, 6 hours, corrected by GAPDH, DMSO as 100%
T2 construct: endogenous in cells; host or cells: Jurkat cells
T2 sequence (P23458 whole entry): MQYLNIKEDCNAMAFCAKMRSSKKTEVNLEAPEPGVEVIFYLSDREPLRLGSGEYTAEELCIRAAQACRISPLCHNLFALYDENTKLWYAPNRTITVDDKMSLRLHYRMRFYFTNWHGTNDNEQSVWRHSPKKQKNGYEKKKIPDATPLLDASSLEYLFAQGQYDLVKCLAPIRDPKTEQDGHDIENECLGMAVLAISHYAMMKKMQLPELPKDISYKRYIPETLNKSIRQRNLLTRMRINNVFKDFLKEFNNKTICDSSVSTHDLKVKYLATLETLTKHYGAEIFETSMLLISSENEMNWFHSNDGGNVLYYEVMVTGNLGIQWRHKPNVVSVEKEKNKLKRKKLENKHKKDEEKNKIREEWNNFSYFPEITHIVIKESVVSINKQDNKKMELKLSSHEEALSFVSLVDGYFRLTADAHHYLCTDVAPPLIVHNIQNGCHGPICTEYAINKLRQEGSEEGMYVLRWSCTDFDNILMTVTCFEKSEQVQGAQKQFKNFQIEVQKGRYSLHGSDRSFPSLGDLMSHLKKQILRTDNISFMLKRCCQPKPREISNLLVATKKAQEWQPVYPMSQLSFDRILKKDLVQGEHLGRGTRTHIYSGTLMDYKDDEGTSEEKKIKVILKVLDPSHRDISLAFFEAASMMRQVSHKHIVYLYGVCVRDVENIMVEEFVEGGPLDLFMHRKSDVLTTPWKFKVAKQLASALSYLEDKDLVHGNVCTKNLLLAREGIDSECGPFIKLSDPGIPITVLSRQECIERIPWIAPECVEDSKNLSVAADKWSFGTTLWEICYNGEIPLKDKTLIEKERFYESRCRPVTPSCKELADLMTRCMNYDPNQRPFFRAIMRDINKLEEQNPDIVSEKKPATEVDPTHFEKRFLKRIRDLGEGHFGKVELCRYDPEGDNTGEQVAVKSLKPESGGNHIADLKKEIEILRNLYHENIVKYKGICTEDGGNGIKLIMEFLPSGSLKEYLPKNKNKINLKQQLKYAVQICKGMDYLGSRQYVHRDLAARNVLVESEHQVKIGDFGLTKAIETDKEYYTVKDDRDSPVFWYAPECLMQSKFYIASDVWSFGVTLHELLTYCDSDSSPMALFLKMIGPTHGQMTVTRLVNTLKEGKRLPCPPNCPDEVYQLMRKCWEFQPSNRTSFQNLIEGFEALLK
Method: as §1, §2, §3

Tyk2 = biological target: T3, Tyk2 (Homo sapiens, UniProt P29597); test: Degradation-inducing effect on JAK in Jurkat cells (chemiluminescent Western blotting), Tyk2; details: 1 μmol/L, 6 hours; for JAK protein ratio of Jurkat cells after treatment of each test compound: Tyk2: corrected by GAPDH, DMSO as 100%
T3 construct: endogenous in cells; host or cells: Jurkat cells
T3 sequence (P29597 whole entry): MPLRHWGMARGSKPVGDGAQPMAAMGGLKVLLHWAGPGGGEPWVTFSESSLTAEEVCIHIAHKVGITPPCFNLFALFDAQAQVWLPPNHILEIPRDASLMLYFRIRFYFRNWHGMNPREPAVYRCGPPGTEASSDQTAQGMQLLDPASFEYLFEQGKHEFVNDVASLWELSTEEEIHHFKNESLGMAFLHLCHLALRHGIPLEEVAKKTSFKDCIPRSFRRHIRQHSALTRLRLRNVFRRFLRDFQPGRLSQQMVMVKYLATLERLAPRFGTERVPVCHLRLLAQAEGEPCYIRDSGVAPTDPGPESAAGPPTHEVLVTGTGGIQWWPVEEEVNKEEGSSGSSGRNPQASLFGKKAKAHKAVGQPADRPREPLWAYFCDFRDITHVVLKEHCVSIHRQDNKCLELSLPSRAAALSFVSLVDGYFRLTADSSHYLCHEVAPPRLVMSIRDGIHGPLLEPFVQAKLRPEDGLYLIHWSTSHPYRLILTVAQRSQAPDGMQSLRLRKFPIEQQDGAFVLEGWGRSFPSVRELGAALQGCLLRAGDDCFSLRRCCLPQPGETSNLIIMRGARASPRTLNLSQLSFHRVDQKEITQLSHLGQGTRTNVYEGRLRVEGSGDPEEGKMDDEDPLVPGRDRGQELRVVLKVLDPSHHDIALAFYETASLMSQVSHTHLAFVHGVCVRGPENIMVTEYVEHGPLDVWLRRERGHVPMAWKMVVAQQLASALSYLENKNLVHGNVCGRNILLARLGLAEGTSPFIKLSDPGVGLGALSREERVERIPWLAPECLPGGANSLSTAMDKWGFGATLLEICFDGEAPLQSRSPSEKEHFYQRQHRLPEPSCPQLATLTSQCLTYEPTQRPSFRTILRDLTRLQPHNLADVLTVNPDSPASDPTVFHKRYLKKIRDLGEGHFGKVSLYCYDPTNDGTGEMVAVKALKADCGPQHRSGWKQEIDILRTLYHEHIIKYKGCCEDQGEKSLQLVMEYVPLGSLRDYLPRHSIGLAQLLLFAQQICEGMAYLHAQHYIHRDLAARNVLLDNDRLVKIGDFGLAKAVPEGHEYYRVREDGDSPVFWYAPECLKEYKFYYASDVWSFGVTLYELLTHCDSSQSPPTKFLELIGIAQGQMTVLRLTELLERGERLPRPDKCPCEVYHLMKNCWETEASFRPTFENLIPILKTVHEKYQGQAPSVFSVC
Method: as §1, §2, §3

JAK2 = biological target: T4, JAK2 (Homo sapiens, UniProt O60674); test: Degradation-inducing effect on JAK in Jurkat cells (chemiluminescent Western blotting), JAK2; details: 1 μmol/L, 6 hours, corrected by GAPDH, DMSO as 100%
T4 construct: endogenous in cells; host or cells: Jurkat cells
T4 sequence (O60674 whole entry): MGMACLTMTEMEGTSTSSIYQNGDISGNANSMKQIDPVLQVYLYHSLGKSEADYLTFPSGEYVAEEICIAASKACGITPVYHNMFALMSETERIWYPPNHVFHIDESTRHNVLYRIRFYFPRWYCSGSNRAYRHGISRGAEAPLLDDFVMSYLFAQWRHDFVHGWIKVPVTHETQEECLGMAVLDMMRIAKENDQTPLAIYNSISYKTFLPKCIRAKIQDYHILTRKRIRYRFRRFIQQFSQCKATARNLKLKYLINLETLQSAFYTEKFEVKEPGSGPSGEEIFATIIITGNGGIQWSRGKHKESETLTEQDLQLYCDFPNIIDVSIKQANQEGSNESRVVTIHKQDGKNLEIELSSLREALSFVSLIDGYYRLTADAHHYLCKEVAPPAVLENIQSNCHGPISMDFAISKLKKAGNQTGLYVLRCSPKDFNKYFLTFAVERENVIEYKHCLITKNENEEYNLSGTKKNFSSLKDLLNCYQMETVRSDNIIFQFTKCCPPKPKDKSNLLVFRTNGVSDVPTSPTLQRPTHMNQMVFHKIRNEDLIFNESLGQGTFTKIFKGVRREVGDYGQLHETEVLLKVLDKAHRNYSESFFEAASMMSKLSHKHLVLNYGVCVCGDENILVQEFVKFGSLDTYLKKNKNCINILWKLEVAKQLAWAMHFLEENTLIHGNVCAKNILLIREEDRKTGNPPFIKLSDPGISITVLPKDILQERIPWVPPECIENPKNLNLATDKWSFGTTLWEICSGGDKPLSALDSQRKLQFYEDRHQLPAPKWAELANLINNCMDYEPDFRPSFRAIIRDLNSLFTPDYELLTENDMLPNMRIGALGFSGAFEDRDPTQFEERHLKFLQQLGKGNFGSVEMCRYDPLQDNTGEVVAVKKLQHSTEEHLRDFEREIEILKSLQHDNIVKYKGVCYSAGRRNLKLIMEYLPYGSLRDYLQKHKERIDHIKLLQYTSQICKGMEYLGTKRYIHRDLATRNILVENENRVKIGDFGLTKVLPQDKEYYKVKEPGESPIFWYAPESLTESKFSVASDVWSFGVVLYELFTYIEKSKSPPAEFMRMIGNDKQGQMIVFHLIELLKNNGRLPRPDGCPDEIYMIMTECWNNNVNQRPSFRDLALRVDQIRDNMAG
Method: as §1, §2, §3

Compound	JAK3 protein level relative to DMSO at 1 µM (JAK3) [%]	JAK protein ratio of Jurkat cells after treatment of each test compound: JAK1 (JAK1) [%]	JAK protein ratio of Jurkat cells after treatment of each test compound: Tyk2 (Tyk2) [%]	JAK protein ratio of Jurkat cells after treatment of each test compound: JAK2 (JAK2) [%]	protein level of Tyk2 (in words) (Tyk2)
CNC(=O)c1cnc(Nc2ccc(C(=O)NCCCCCCCCC(=O)N[C@H](C(=O)N3C[C@H](O)C[C@H]3C(=O)NCc3ccc(-c4scnc4C)cc3)C(C)(C)C)cn2)cc1Nc1cccc(C(=O)NC)c1OC [Example 4, 6-((5-((9-(((S)-1-((2S,4R)-4-Hydroxy-2-((4-(4-methylthiazol-5-yl)benzyl)carbamoyl)pyrrolidin-1-yl)-3,3-dimethyl-1-oxobutan-2-yl)amino)-9-oxononyl)carbamoyl)pyridin-2-yl)amino)-4-((2-methoxy-3-(methylcarbamoyl)phenyl)amino)-N-methylnicotinamide]	129	129.1	41.7	158.8	
CNC(=O)c1cnc(Nc2ccc(C(=O)NCCCCCCCCCC(=O)N[C@H](C(=O)N3C[C@H](O)C[C@H]3C(=O)NCc3ccc(-c4scnc4C)cc3)C(C)(C)C)cn2)cc1Nc1cccc(C(=O)NC)c1OC [Example 5, 6-((5-((10-(((S)-1-((2S,4R)-4-Hydroxy-2-((4-(4-methylthiazol-5-yl)benzyl)carbamoyl)pyrrolidin-1-yl)-3,3-dimethyl-1-oxobutan-2-yl)amino)-10-oxodecyl)carbamoyl)pyridin-2-yl)amino)-4-((2-methoxy-3-(methylcarbamoyl)phenyl)amino)-N-methylnicotinamide]	112	122.8	23.1	121.0	
CNC(=O)c1cnc(Nc2ccc(C(=O)NCCCCCCCCCCC(=O)N[C@H](C(=O)N3C[C@H](O)C[C@H]3C(=O)NCc3ccc(-c4scnc4C)cc3)C(C)(C)C)cn2)cc1Nc1cccc(C(=O)NC)c1OC [Example 6, 6-((5-((11-(((S)-1-((2S,4R)-4-Hydroxy-2-((4-(4-methylthiazol-5-yl)benzyl)carbamoyl)pyrrolidin-1-yl)-3,3-dimethyl-1-oxobutan-2-yl)amino)-11-oxoundecyl)carbamoyl)pyridin-2-yl)amino)-4-((2-methoxy-3-(methylcarbamoyl)phenyl)amino)-N-methylnicotinamide]	122	113.2	30.3	139.8	

Further lines, results first:

JAK3 protein level relative to DMSO at 1 µM (JAK3) [%]	JAK protein ratio of Jurkat cells after treatment of each test compound: JAK1 (JAK1) [%]	JAK protein ratio of Jurkat cells after treatment of each test compound: Tyk2 (Tyk2) [%]	JAK protein ratio of Jurkat cells after treatment of each test compound: JAK2 (JAK2) [%]	protein level of Tyk2 (in words) (Tyk2)	Compound
112	112.1	47.1	108.2		CNC(=O)c1cnc(Nc2ccc(C(=O)NCCCCCCCCCCCC(=O)N[C@H](C(=O)N3C[C@H](O)C[C@H]3C(=O)NCc3ccc(-c4scnc4C)cc3)C(C)(C)C)cn2)cc1Nc1cccc(C(=O)NC)c1OC [Example 7, 6-((5-((12-(((S)-1-((2S,4R)-4-Hydroxy-2-((4-(4-methylthiazol-5-yl)benzyl)carbamoyl)pyrrolidin-1-yl)-3,3-dimethyl-1-oxobutan-2-yl)amino)-12-oxododecyl)carbamoyl)pyridin-2-yl)amino)-4-((2-methoxy-3-(methylcarbamoyl)phenyl)amino)-N-methylnicotinamide]
99	102.6	97.0	122.5	not reduced	CNC(=O)c1cnc(Nc2ccc(C(=O)NCCCCCCCCCC(=O)N[C@H](C(=O)N3C[C@@H](O)C[C@H]3C(=O)NCc3ccc(-c4scnc4C)cc3)C(C)(C)C)cn2)cc1Nc1cccc(C(=O)NC)c1OC [Example 8, 6-((5-((10-(((S)-1-((2S,4S)-4-Hydroxy-2-((4-(4-methylthiazol-5-yl)benzyl)carbamoyl)pyrrolidin-1-yl)-3,3-dimethyl-1-oxobutan-2-yl)amino)-10-oxodecyl)carbamoyl)pyridin-2-yl)amino)-4-((2-methoxy-3-(methylcarbamoyl)phenyl)amino)-N-methylnicotinamide]
